Source: US9284335B2, “Substituted pyrido[3,2-e][1,2,4]triazolo[1,5-c]pyrimidines, pyrido[2,3-e][1,2,4]triazolo[1,5-c]pyrimidines and/or [1,2,4]triazolo[1,5-c]pteridines for treatment of central nervous system diseases and disorders” (DART NEUROSCIENCE (CAYMAN) LTD., priority 2012, dated 2016)

Test system: NS1 cells
Experiment: Neurite outgrowth (NOG) assay
Assay type: cell-based
Method: Neuroscreen 1 (NS1) Cells (Cellomics Inc.) were cultured on collagen type I coated 75 cm2 plastic flasks (Biocoat, Becton Dickinson) in a humidified incubator at 37° C. in 5% CO2. Cells were cultured in RPMI complete cell culture medium (Cambrex) supplemented with 10% heat-inactivated horse serum (Invitrogen), 5% heat-inactivated fetal bovine serum (Cellgro), and 2 mM L-glutamine (Cambrex). For expansion, the cells were trypsinized and split at 80% confluence. Cell culture media was changed every 2 to 3 days.
NS1 cells were harvested and counted using a Coulter counter (Becton Dickinson Coulter Z1). Cells were seeded in 96-well collagen I coated plates at a density of 2000 cells per well in volume of 200 μl. RPMI media was supplemented with 200 ng/ml nerve growth factor (NGF, Sigma). NS1 cells were incubated for 72 hours to allow differentiation to a neuronal phenotype. […]
Antibody-stained 96-well plates were stored at 4° C. in the dark until scanning. […] The neurite outgrowth assay is based on two channels to scanning: (1) Channel 1, which detects the Hoechst Dye and is used by the software to identify cells and for automated focusing; and (2) Channel 2, which detects the FITC fluorescence of the secondary antibody and is used by the software to calculate all data generated in reference to neurites. […]

Compound: COc1ccc(C2CNC(=O)C2)cc1OC1CCCC1 (centres unmarked) [Rolipram]
- neurite length and branching / neurite outgrowth (in combination with forskolin): enhanced in dose-dependent manner
- neurite length and branching / neurite outgrowth (without forskolin): not affected
